Reference: PubChem BioAssay (NCI)
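Protocol summary: plate cells (96-well), add compound at 5 concentrations, incubate 48 h, interpolate endpoints linearly. Definition used: TGI = concentration required for complete inhibition of growth.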

Columns and labels:
Test in all cases: growth of human tumour cells (NCI), 48 h
[1] = system: UACC-62 melanoma
[2] = system: DU-145 prostate
[3] = system: SK-MEL-2 melanoma
[4] = system: A498 renal
[5] = system: COLO 205 colon
[6] = system: BT-549 breast
[7] = system: NCI-H23 lung
[8] = system: SK-MEL-5 melanoma
[9] = system: SN12C renal
[10] = system: HOP-62 NSCLC
[11] = system: U251 CNS
[12] = system: SF-539 CNS
[13] = system: HT29 colon
[14] = system: MDA-N
[15] = system: TK-10 renal
[16] = system: NCI-H460 lung
[17] = system: PC-3 prostate
[18] = system: UO-31 renal
[19] = system: HOP-92 NSCLC
[20] = system: MDA-MB-231 breast
[21] = system: SF-268 CNS
[22] = system: SK-OV-3 ovarian
[23] = system: MCF7 breast
[24] = system: MDA-MB-435
[25] = system: ACHN renal
[26] = system: M14 melanoma
[27] = system: HCT-116 colon
[28] = system: OVCAR-4 ovarian
[29] = system: CCRF-CEM leukemia
[30] = system: K-562 leukemia
[31] = system: CAKI-1 renal
[32] = system: SF-295 CNS
[33] = system: KM12 colon
[34] = system: A549 NSCLC
[35] = system: HCC-2998 colon
[36] = system: RPMI-8226 leukemia
[37] = system: MOLT-4 leukemia
[38] = system: NCI-H522 lung
[39] = system: 786-0 renal
[40] = system: SW-620 colon
[41] = system: MALME-3M melanoma
[42] = system: NCI/ADR-RES ovarian
[43] = system: SNB-19 CNS
[44] = system: RXF 393 renal
[45] = system: T-47D breast
[46] = system: SK-MEL-28 melanoma
[47] = system: OVCAR-5 ovarian
[48] = system: OVCAR-8 ovarian
[49] = system: UACC-257 melanoma
[50] = system: OVCAR-3 ovarian
[51] = system: HL-60(TB) leukemia
[52] = system: HCT-15 colon
[53] = system: HS 578T breast
[54] = system: LOX IMVI melanoma
[55] = system: NCI-H226 lung
[56] = system: SNB-75 CNS
[57] = system: EKVX NSCLC
[58] = system: IGROV1 ovarian

Cc1ccc(-c2cc(-c3ccccc3)nc(N)n2)c(O)c1
TGI [1]: > 100 µM
TGI [2]: > 100 µM
TGI [3]: > 100 µM
TGI [4]: > 100 µM
TGI [5]: > 100 µM
TGI [6]: > 100 µM
TGI [7]: > 100 µM
TGI [8]: > 100 µM
TGI [9]: > 100 µM
TGI [10]: > 100 µM
TGI [11]: > 100 µM
TGI [12]: > 100 µM
TGI [13]: > 100 µM
TGI [14]: > 100 µM
TGI [15]: > 100 µM
TGI [16]: > 100 µM
TGI [17]: > 100 µM
TGI [18]: > 100 µM
TGI [19]: > 100 µM
TGI [20]: > 100 µM
TGI [21]: > 100 µM
TGI [22]: > 100 µM
TGI [23]: > 100 µM
TGI [24]: > 100 µM
TGI [25]: > 100 µM
TGI [26]: > 100 µM
TGI [27]: > 100 µM
TGI [28]: > 100 µM
TGI [29]: > 100 µM
TGI [30]: > 100 µM
TGI [31]: > 100 µM
TGI [32]: > 100 µM
TGI [33]: > 100 µM
TGI [34]: > 100 µM
TGI [35]: > 100 µM
TGI [36]: > 100 µM
TGI [37]: > 100 µM
TGI [38]: > 100 µM
TGI [39]: > 100 µM
TGI [40]: > 100 µM
TGI [41]: > 100 µM
TGI [42]: > 100 µM
TGI [43]: > 100 µM
TGI [44]: > 100 µM
TGI [45]: > 100 µM
TGI [46]: > 100 µM
TGI [47]: > 100 µM
TGI [48]: > 100 µM
TGI [49]: > 100 µM
TGI [50]: > 100 µM
TGI [51]: > 100 µM
TGI [52]: > 100 µM

CN(CCCN=C=S)CCCN1c2ccccc2CCc2ccccc21
TGI [1]: 3.2 µM
TGI [2]: 3.22 µM
TGI [53]: 4.03 µM
TGI [3]: 3.38 µM
TGI [4]: 3.07 µM
TGI [7]: 3.11 µM
TGI [8]: 3.43 µM
TGI [9]: 3.17 µM
TGI [11]: 3.26 µM
TGI [12]: 3.46 µM
TGI [13]: 2.94 µM
TGI [14]: 3.16 µM
TGI [15]: 3.26 µM
TGI [16]: 3.45 µM
TGI [18]: 3 µM
TGI [19]: 4.29 µM
TGI [20]: 3.29 µM
TGI [21]: 3.24 µM
TGI [22]: 3.16 µM
TGI [24]: 3.27 µM
TGI [25]: 3.12 µM
TGI [26]: 3.16 µM
TGI [27]: 3.09 µM
TGI [28]: 3.56 µM
TGI [29]: > 100 µM
TGI [30]: > 100 µM
TGI [31]: 3.21 µM
TGI [33]: 3.5 µM
TGI [34]: 3.16 µM
TGI [35]: 2.69 µM
TGI [37]: > 100 µM
TGI [39]: 3.08 µM
TGI [41]: 3.48 µM
TGI [42]: 2.67 µM
TGI [43]: 3.14 µM
TGI [44]: 3.39 µM
TGI [45]: 3.92 µM
TGI [47]: 3.35 µM
TGI [48]: 3.43 µM
TGI [49]: 3.85 µM
TGI [50]: 3.14 µM
TGI [52]: 2.9 µM

CN(CCCNCc1ccccn1)Cc1ccccc1O
TGI [1]: 43.2 µM
TGI [2]: > 100 µM
TGI [53]: > 100 µM
TGI [3]: > 100 µM
TGI [4]: > 100 µM
TGI [5]: 94.4 µM
TGI [7]: 55.6 µM
TGI [8]: 51.6 µM
TGI [54]: > 100 µM
TGI [9]: > 100 µM
TGI [10]: > 100 µM
TGI [11]: > 100 µM
TGI [13]: 94.4 µM
TGI [14]: > 100 µM
TGI [15]: 64.8 µM
TGI [16]: > 100 µM
TGI [17]: > 100 µM
TGI [18]: 19.8 µM
TGI [19]: > 100 µM
TGI [20]: > 100 µM
TGI [21]: > 100 µM
TGI [22]: > 100 µM
TGI [23]: > 100 µM
TGI [24]: > 100 µM
TGI [25]: 42.3 µM
TGI [27]: > 100 µM
TGI [28]: > 100 µM
TGI [29]: > 100 µM
TGI [30]: > 100 µM
TGI [31]: > 100 µM
TGI [32]: 54.7 µM
TGI [33]: > 100 µM
TGI [34]: > 100 µM
TGI [55]: 97.8 µM
TGI [35]: > 100 µM
TGI [56]: > 100 µM
TGI [36]: > 100 µM
TGI [37]: > 100 µM
TGI [38]: > 100 µM
TGI [39]: > 100 µM
TGI [57]: > 100 µM
TGI [40]: > 100 µM
TGI [41]: > 100 µM
TGI [42]: 95.2 µM
TGI [43]: 68.5 µM
TGI [44]: > 100 µM
TGI [45]: > 100 µM
TGI [46]: > 100 µM
TGI [47]: > 100 µM
TGI [48]: > 100 µM
TGI [49]: 92.2 µM
TGI [50]: > 100 µM
TGI [51]: > 100 µM
TGI [52]: > 100 µM
TGI [58]: > 100 µM

C[C@H]1[C@H](N2CCCC2)O[Si](C(C)(C)C)(C(C)(C)C)[C@@H]1C
TGI [1]: > 100 µM
TGI [3]: > 100 µM
TGI [4]: > 100 µM
TGI [5]: > 100 µM
TGI [6]: > 100 µM
TGI [7]: > 100 µM
TGI [8]: > 100 µM
TGI [54]: > 100 µM
TGI [9]: > 100 µM
TGI [10]: > 100 µM
TGI [11]: > 100 µM
TGI [12]: > 100 µM
TGI [13]: > 100 µM
TGI [14]: > 100 µM
TGI [15]: > 100 µM
TGI [17]: > 100 µM
TGI [18]: > 100 µM
TGI [19]: 4.7 µM
TGI [20]: > 100 µM
TGI [22]: > 100 µM
TGI [23]: > 100 µM
TGI [24]: > 100 µM
TGI [25]: > 100 µM
TGI [26]: > 100 µM
TGI [27]: > 100 µM
TGI [28]: > 100 µM
TGI [29]: > 100 µM
TGI [30]: > 100 µM
TGI [31]: > 100 µM
TGI [32]: > 100 µM
TGI [33]: > 100 µM
TGI [34]: > 100 µM
TGI [55]: > 100 µM
TGI [35]: > 100 µM
TGI [56]: > 100 µM
TGI [36]: > 100 µM
TGI [37]: > 100 µM
TGI [38]: > 100 µM
TGI [39]: > 100 µM
TGI [57]: > 100 µM
TGI [40]: > 100 µM
TGI [41]: > 100 µM
TGI [42]: > 100 µM
TGI [43]: > 100 µM
TGI [45]: > 100 µM
TGI [46]: > 100 µM
TGI [47]: > 100 µM
TGI [48]: > 100 µM
TGI [49]: > 100 µM
TGI [50]: > 100 µM
TGI [51]: 48.5 µM
TGI [52]: > 100 µM
TGI [58]: > 100 µM

Cc1ccc(C(=O)N/N=C(\N=Nc2cccc([N+](=O)[O-])c2)c2ccc(N(C)C)cc2)cc1
TGI [2]: 85.5 µM
TGI [53]: > 100 µM
TGI [3]: > 100 µM
TGI [5]: > 100 µM
TGI [6]: > 100 µM
TGI [7]: > 100 µM
TGI [8]: > 100 µM
TGI [54]: > 100 µM
TGI [9]: > 100 µM
TGI [11]: > 100 µM
TGI [12]: > 100 µM
TGI [13]: > 100 µM
TGI [14]: > 100 µM
TGI [15]: > 100 µM
TGI [16]: > 100 µM
TGI [17]: > 100 µM
TGI [18]: > 100 µM
TGI [19]: > 100 µM
TGI [20]: > 100 µM
TGI [21]: > 100 µM
TGI [23]: > 100 µM
TGI [24]: > 100 µM
TGI [26]: > 100 µM
TGI [27]: > 100 µM
TGI [28]: > 100 µM
TGI [29]: > 100 µM
TGI [30]: > 100 µM
TGI [31]: > 100 µM
TGI [32]: > 100 µM
TGI [33]: > 100 µM
TGI [34]: > 100 µM
TGI [55]: > 100 µM
TGI [35]: > 100 µM
TGI [36]: > 100 µM
TGI [37]: > 100 µM
TGI [38]: > 100 µM
TGI [39]: > 100 µM
TGI [57]: > 100 µM
TGI [40]: > 100 µM
TGI [42]: > 100 µM
TGI [43]: > 100 µM
TGI [46]: > 100 µM
TGI [47]: > 100 µM
TGI [48]: > 100 µM
TGI [49]: > 100 µM
TGI [50]: > 100 µM
TGI [51]: > 100 µM
TGI [52]: > 100 µM
TGI [58]: > 100 µM
